The source of these data is ChEMBL document CHEMBL1130949, “Construction of a family of biphenyl combinatorial libraries: structure-activity studies utilizing libraries of mixtures” (Bioorg Med Chem Lett, 1998).

The test in a line: Binding affinity against vitronectin receptor was determined.

On to `CC(=O)N[C@H](CC(=O)O)C(=O)Nc1ccc(-c2ccccc2C(=O)O)cc1`, for which the IC50 was over 500 µM. In turn, `CC(=O)N[C@@H](CC(=O)O)C(=O)Nc1ccc(-c2ccc(C(=O)O)cc2)cc1` returned an IC50 of 96 µM. In the case of `CC(=O)N[C@@H](CC(=O)O)C(=O)Nc1ccc(-c2ccccc2C(=O)O)cc1` it was 52 µM; in that of `CC(=O)N[C@@H](CC(=O)O)C(=O)Nc1ccc(-c2ccccc2C(N)=O)cc1`, 96 µM; in that of `CC(=O)N[C@@H](CC(=O)O)C(=O)Nc1cccc(-c2ccccc2C(=O)O)c1`, 46 µM. As to `CC(=O)N[C@@H](CC(=O)O)C(=O)Nc1ccc(-c2ccccc2C(=O)N[C@@H](CCCN=C(N)N)C(=O)O)cc1`, the IC50 was determined as 34 µM. As for `CC(C)C(=O)N[C@@H](CC(=O)O)C(=O)Nc1ccc(-c2ccccc2C(=O)O)cc1`, the 50% inhibitory concentration (IC50) is over 500 µM. `CC(=O)N[C@@H](CC(=O)O)C(=O)Nc1ccc(-c2cccc(C(=O)O)c2)cc1` returned an IC50 of 31 µM. `COCC(=O)N[C@@H](CC(=O)O)C(=O)Nc1ccc(-c2ccccc2C(=O)O)cc1`: the 50% inhibitory concentration (IC50) is over 500 µM.

As usually defined, the IC50 is the point on the concentration scale where inhibition reaches its midpoint.
